Test results taken from patent publication US20220274979A1 (Bayer Pharma Aktiengesellschaft, priority 2018, published 2022).

Target: T1, Epidermal Growth Factor Receptor (EGFR) (Homo sapiens, UniProt P00533)
T1 construct: purchased Sigma-Aldrich E3641
Test: EGFR kinase assay (TR-FRET)
Type: biochemical
Conditions: 10 μM ATP; read-out: EGFR kinase inhibition IC50
Description: EGFR inhibitory activity of compounds of the present invention was quantified employing the TR-FRET based EGFR assay as described in the following paragraphs.
Epidermal Growth Factor Receptor (EGFR) affinity purified from human carcinoma A431 cells (Sigma-Aldrich, # E3641) was used as kinase. As substrate for the kinase reaction the biotinylated peptide biotin-Ahx-[…] (SEQ ID NO: 8, C-terminus in amid form) was used which can be purchased e.g. form the company Biosyntan GmbH (Berlin-Buch, Germany).
For the assay 50 nL of a 100 fold concentrated solution of the test compound in DMSO was pipetted into a black low volume 384 well microtiter plate (Greiner Bio-One, Frickenhausen, Germany), 2 μL of a solution of EGFR in aqueous assay buffer [50 mM Hepes/HCl pH 7.0, 1 mM MgCl2, 5 mM MnCl2, 0.5 mM activated sodium ortho-vanadate, 0.005% (v/v) Tween-20]were added and the mixture was incubated for […] at 22° C. to allow pre-binding of the test compounds to the enzyme before the start of the kinase reaction. Then the kinase reaction was started by the addition of 3 μL of a solution of adenosine-tri-phosphate (ATP, 16.7 μM=>final conc. in the 5 μL assay volume is 10 μM) and substrate (1.67 μM =>final conc. in the 5 μL assay volume is 1μM) in assay buffer and the resulting mixture was incubated for a reaction time of […] at 22° C. The concentration of EGFR was adjusted depending of the activity of the enzyme lot and was chosen appropriate to have the assay in the linear range, typical concentration were about 3 U/ml. The reaction was stopped by the addition of 5 μl of a solution of HTRF detection reagents (0.1 μM streptavidine-XL665 [Cis Biointernational]and 1 nM PT66-Tb-Cryptate, an terbium-cryptate labelled anti-phospho-tyrosine antibody from Cis Biointernational [instead of the PT66-Tb-cryptate PT66-Eu-Chelate from Perkin Elmer can also be used]) in an aqueous EDTA-solution (80 mM EDTA, 0.2% (w/v) bovine serum albumin in 50 mM HEPES pH 7.5).
The resulting mixture was incubated 1 h at 22° C. to allow the binding of the biotinylated phosphorylated peptide to the streptavidine-XL665 and the PT66-Eu-Chelate. Subsequently the amount of phosphorylated substrate was evaluated by measurement of the resonance energy transfer from the PT66-Tb-Cryptate to the streptavidine-XL665. Therefore, the fluorescence emissions at 620 nm and 665 nm after excitation at 337 nm were measured in a HTRF reader, e.g. a Pherastar (BMG Labtechnologies, Offenburg, Germany) or a Viewlux (Perkin-Elmer). The ratio of the emissions at 665 nm and at […] was taken as the measure for the amount of phosphorylated substrate.

T1 sequence (P00533 25-1210): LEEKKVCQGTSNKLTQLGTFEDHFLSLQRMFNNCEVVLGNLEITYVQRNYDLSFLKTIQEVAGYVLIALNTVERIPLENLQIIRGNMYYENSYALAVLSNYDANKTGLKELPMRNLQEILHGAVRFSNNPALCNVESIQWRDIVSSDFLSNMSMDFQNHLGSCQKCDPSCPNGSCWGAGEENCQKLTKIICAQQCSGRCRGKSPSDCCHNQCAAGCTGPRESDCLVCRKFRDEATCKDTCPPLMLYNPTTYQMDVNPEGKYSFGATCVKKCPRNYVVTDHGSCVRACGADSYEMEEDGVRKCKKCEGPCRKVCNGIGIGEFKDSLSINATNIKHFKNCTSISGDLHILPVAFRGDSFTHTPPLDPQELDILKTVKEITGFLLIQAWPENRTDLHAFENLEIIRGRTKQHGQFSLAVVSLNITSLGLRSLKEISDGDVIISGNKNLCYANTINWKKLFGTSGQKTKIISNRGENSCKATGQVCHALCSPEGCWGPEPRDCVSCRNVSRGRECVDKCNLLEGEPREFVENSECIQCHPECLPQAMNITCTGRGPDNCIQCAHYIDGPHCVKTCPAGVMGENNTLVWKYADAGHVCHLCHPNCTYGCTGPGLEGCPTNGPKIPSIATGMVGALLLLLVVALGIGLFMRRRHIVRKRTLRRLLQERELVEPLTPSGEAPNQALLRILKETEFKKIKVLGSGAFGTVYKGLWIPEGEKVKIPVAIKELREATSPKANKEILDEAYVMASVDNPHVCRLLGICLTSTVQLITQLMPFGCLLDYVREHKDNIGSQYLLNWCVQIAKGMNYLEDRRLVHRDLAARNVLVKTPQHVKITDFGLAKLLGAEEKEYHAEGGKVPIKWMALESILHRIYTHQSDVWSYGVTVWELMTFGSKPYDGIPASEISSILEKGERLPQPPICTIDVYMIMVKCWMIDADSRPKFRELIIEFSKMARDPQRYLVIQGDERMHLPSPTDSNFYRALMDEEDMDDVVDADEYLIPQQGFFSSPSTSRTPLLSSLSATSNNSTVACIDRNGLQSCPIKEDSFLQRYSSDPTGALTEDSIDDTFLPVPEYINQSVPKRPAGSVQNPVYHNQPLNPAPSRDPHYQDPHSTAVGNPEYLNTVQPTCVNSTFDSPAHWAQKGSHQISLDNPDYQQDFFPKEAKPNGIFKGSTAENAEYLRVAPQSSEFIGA

Row | SMILES | IC50 [µM]
1 | Cc1nc(N[C@H](C)c2cccc(Br)c2)c2cc(OCCCN(C)C)ncc2n1 [Example 70, N-[(1R)-1-(3-bromophenyl)ethyl]-6-[3-(dimethylamino)propoxy]-2-methylpyrido[3,4-d]pyrimidin-4-amine] | > 20
2 | CC(=O)NCCOc1cc2c(N[C@H](C)c3cccc(Br)c3)nc(C)nc2cn1 [Example 62, N-{2-[(4-{[(1R)-1-(3-bromophenyl)ethyl]amino}-2-methylpyrido[3,4-d]pyrimidin-6-yl)oxy]ethyl}acetamide] | > 20
3 | CNCc1ccccc1-c1ccc(C(C)Nc2nc(C)nc3cnc(Oc4ccc(N5CCCC5=O)cc4)cc23)s1 (stereo not drawn) [Example 38, 1-{4-[(2-methyl-4-{[1-(5-{2-[(methylamino)methyl]phenyl}thiophen-2-yl)ethyl]amino}pyrido[3,4-d]pyrimidin-6-yl)oxy]phenyl}pyrrolidin-2-one] | > 20
4 | CC(=O)NC1CCN(c2cc3c(N[C@H](C)c4cccc(Br)c4)nc(C)nc3cn2)C1 (mixture of isomers) [Example 42, N-[1-(4-{[(1R)-1-(3-bromophenyl)ethyl]amino}-2-methylpyrido[3,4-d]pyrimidin-6-yl)pyrrolidin-3-yl]acetamide] | > 20
5 | Cc1nc(N[C@H](C)c2cccc(Br)c2)c2cc(Oc3cccc(O)c3)ncc2n1 [Example 40, 3-[(4-{[(1R)-1-(3-bromophenyl)ethyl]amino}-2-methylpyrido[3,4-d]pyrimidin-6-yl)oxy]phenol] | > 20
6 | COc1cc2c(N[C@H](C)c3ccc(F)c(C4CC4)c3)nc(C)nc2cn1 [Example 12] | > 20
7 | Cc1nc(N[C@H](C)c2cccc(Br)c2)c2nc(N(C)C)ccc2n1 [Example 31] | > 20
8 | Cc1nc(N[C@H](C)c2ccc(F)cc2)c2cc(OCC3CCOCC3)ncc2n1 [Example 11, N-[1R)-1-(4-fluorophenypethyl]-2-methyl-6-(tetrahydro-2H-pyran-4-ylmethoxy)-pyrido[3,4-d]pyrimidin-4-amine] | > 20
9 | Cc1nc(NC(C)c2ccc(-c3ccccc3CN(C)C)s2)c2cc(OCCO)ncc2n1 (stereo not drawn) [Example 74, 2-[(4-{[1-(5-{2-[(dimethylamino)methyl]phenyl}thiophen-2-yl)ethyl]amino}-2-methylpyrido[3,4-d]pyrimidin-6-yl)oxy]ethanol] | > 20
10 | Cc1nc(N[C@H](C)c2cccc(Br)c2)c2nc(N3CCOCC3)ccc2n1 [Example 27, N-[(1R)-1-(3-bromophenyl)ethyl]-2-methyl-6-(morpholin-4-yl)pyrido[3,2-d]pyrimidin-4-amine] | > 20
11 | Cc1nc(N[C@H](C)c2cccc(Br)c2)c2nc(OCc3ccccc3)ccc2n1 [Example 33, 6-(benzyloxy)-N-[(1R)-1-(3-bromophenyl)ethyl]-2-methylpyrido[3,2-d]pyrimidin-4-amine] | > 20
12 | Cc1nc(N[C@H](C)c2cccc(Br)c2)c2cc(NC3CCOCC3)ncc2n1 [Example 46] | > 20
13 | Cc1nc(N[C@H](C)c2cccc(Br)c2)c2cc(NCCn3cccn3)ncc2n1 [Example 49, N4-[(1R)-1-(3-bromophenl)pethyl]-2-methyl-N6-[2-(1H-pyrazol-1-yl)ethyl]pyrido[3,4-d]pyrimidine-4,6-diamine] | > 20
14 | Cc1nc(N[C@H](C)c2ccc(F)cc2)c2cc(OC(C)C)ncc2n1 [Example 15] | > 20
15 | Cc1nc(NC(C)c2ccc(-c3ccccc3CN(C)C)s2)c2cc(Oc3cccc(O)c3)ncc2n1 (stereo not drawn) [Example 52, 3-[(4-{[1-(5-{2-[(dimethylamino)methyl]phenyl}thiophen-2-yl)ethyl]amino}-2-methylpyrido[3,4-d]pyrimidin-6-yl)oxy]phenol] | > 20
16 | COc1ncc2nc(C)nc(N[C@H](C)c3cccc(Br)c3)c2n1 [Example 24, N-[(1R)-1-(3-bromophenyl)ethyl]-6-methoxy-2-methylpyrimido[5,4-d]pyrimidin-4-amine] | > 20
17 | Cc1nc(NC(C)c2ccc(-c3ccccc3CN(C)C)s2)c2cc(OCCCO)ncc2n1 (stereo not drawn) [Example 76, 3-[(4-{[1-(5-{2-[(dimethylamino)methyl]phenyl}thiophen-2-yl)ethyl]amino}-2-methylpyrido[3,4-d]pyrimidin-6-yl)oxy]propan-1-ol] | > 20

Row | SMILES | IC50 [µM]
18 | COc1cc2c(N[C@H](C)c3cccc(Br)c3)nc(C)nc2cn1 [Example 57, N-[(1R)-1-(3-bromophenyl)ethyl]-6-methoxy-2-methylpyrido[3,4-d]pyrimidin-4-amine] | > 20
19 | Cc1nc(NC(C)c2ccc(-c3ccccc3CN(C)C)s2)c2cc(N3CC(NS(=O)(=O)Cc4ccccc4)C3)ncc2n1 (stereo not drawn) [Example 95, N-[1-(4-{[1-(5-{2-[(dimethylamino)methyl]phenyl}thiophen-2-yl)ethyl]amino}-2-methylpyrido[3,4-d]pyrimidin-6-yl)azetidin-3-yl]-1-phenylmethanesulfonamide] | > 20
20 | Cc1nc(N[C@H](C)c2cccc(Br)c2)c2cc(NCCS(C)(=O)=O)ncc2n1 [Example 83] | > 20
21 | Cc1nc(NC(C)c2ccc(-c3ccccc3CN(C)C)s2)c2cc(N3CC(NC(=O)Nc4ccccc4)C3)ncc2n1 (stereo not drawn) [Example 96, 1-[1-(4-{[1-(5-{2-[(dimethylamino)methyl]phenyl}thiophen-2-yl)ethyl]amino}-2-methylpyrido[3,4-d]pyrimidin-6-yl)azetidin-3-yl]-3-phenylurea] | > 20
22 | Cc1nc(NC(C)c2ccc(-c3ccccc3CN(C)C)s2)c2cc(N3CC(NC(=O)Cc4ccccc4)C3)ncc2n1 (stereo not drawn) [Example 89, N-[1-(4-{[1-(5-{2-[(dimethylamino)methyl]phenyl}thiophen-2-yl)ethyl]amino}-2-methylpyrido[3,4-d]pyrimidin-6-yl)azetidin-3-yl]-2-phenylacetamide] | > 20
23 | CCOc1cc2c(N[C@H](C)c3ccc(Br)cc3)nc(C)nc2cn1 [Example 13, N-[(1R)-1-(4-bromophenyl)ethyl]-6-ethoxy-2-methylpyrido[3,4-d]pyrimidin-4-amine] | > 20
24 | CCOc1cc2c(N[C@H](C)c3cccc(S(C)(=O)=O)c3)nc(C)nc2cn1 [Example 7, 6-ethoxy-2-methyl-N-{(1R)-1-[3-(methylsulfonyl)phenyl]ethyl}pyrido[3,4-d]pyrimidin-4-amine] | > 20
25 | Cc1nc(N[C@H](C)c2cccc(Br)c2)c2nc(Oc3ccccc3)ccc2n1 [Example 32, N-[(1R)-1-(3-bromophenyl)ethyl]-2-methyl-6-phenoxypyrido[3,2-d]pyrimidin-4-amine] | > 20
26 | COc1cc2c(N[C@H](C)c3ccc(F)c(Cl)c3)nc(C)nc2cn1 [Example 8] | > 20
27 | Cc1nc(NC(C)c2ccc(-c3ccccc3CN(C)C)s2)c2cc(OC3CCS(=N)(=O)CC3)ncc2n1 (stereo not drawn) [Example 77, N-[1-(5-{2-[(dimethylamino)methyl]phenyl}-2-thienyl)ethyl]-6-[(1-imino-1-oxidohexahydro-1lambda4-thiopyran-4-yl)oxy]-2-methylpyrido[3,4-d]pyrimidin-4-amine] | > 20
28 | COc1cc2c(NC(C)c3cccc4nn(C)cc34)nc(C)nc2cn1 (stereo not drawn) [Example 17, 6-methoxy-2-methyl-N-[1-(2-methyl-2H-indazol-4-yl)ethyl]pyrido[3,4-d]pyrimidin-4-amine] | > 20
29 | Cc1nc(N[C@H](C)c2cccc(Br)c2)c2cc(F)ncc2n1 [Example 34, N-[(1R)-1-(3-bromophenyl)ethyl]-6-fluoro-2-methylpyrido[3,4-d]pyrimidin-4-amine] | > 20
30 | CNCc1ccccc1-c1ccc(C(C)Nc2nc(C)nc3cnc(F)cc23)s1 (stereo not drawn) [Example 36, 6-fluoro-2-methyl-N-[1-(5-{2-[(methylamino)methyl]phenyl}thiophen-2-yl)ethyl]pyrido[3,4-d]pyrimidin-4-amine] | > 20
31 | COc1cc2c(NC(C)c3cccc4c3cnn4C)nc(C)nc2cn1 (stereo not drawn) [Example 14, 6-methoxy-2-methyl-N-[1-(1-methyl-1H-indazol-4-yl)ethyl]pyrido[3,4-d]pyrimidin-4-amine] | > 20
32 | Cc1nc(N[C@H](C)c2ccc(F)cc2)c2cc(F)ncc2n1 [Example 9] | > 20
33 | Cc1nc(NC(C)c2ccc(-c3ccccc3CN(C)C)s2)c2cc(C3CCN(C)C3=O)ncc2n1 (mixture of isomers) [Example 69, 3-(4-{[1-(5-{2-[(dimethylamino)methyl]phenyl}thiophen-2-yl)ethyl]amino}-2-methylpyrido[3,4-d]pyrimidin-6-yl)-1-methylpyrrolidin-2-one] | > 20
